Data reported in patent publication US7585873B2, “1-(aminoalkyl)-3-sulfonylazaindoles as 5-hydroxytryptamine-6 ligands” (Wyeth, priority 2002, dated 2009).
Counter-ions that a name gives are not always drawn. Like-named read-outs stand apart in the source and are kept apart here.

Legend:
[1] = molecular target: T1, human cloned 5-HT6 receptors (Homo sapiens, UniProt P50406); experiment: 5-HT6 binding affinity, [3H]-LSD displacement on membranes of Hela cells expressing human cloned 5-HT6 receptors
T1 construct: expressed in transfected cells; host or cells: Hela cells

[2] = [3H]-LSD 3.0 nM, Hela cell membranes, 120 min at room temperature, read-out: 5-HT6 Binding Ki

T1 sequence (P50406 whole entry): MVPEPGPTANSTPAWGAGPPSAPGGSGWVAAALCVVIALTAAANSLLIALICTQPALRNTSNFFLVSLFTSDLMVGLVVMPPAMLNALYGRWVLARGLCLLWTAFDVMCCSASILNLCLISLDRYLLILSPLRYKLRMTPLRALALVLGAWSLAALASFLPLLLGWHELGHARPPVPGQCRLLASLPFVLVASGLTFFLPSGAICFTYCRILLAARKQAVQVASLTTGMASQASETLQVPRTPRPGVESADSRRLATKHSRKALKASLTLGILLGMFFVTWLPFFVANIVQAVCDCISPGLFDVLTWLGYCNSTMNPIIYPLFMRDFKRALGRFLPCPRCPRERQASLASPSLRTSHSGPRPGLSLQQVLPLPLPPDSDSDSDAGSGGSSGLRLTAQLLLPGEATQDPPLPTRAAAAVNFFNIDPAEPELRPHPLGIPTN

| melting point [°C] | Ki [1, 2] [nM] | SMILES | other results |
| --- | --- | --- | --- |
| 189 to 192 |  | CN(C)CCn1cc(S(=O)(=O)c2ccc(F)cc2)c2cccnc21 (as salt: hydrochloride) [Example 13] |  |
| 182 to 186 |  | CN(C)CCn1cc(S(=O)(=O)c2cccc(Cl)c2)c2cccnc21 (as salt: hydrochloride) [Example 14] |  |
| 148 to 170 |  | NCCn1cc(S(=O)(=O)c2cccc3ccccc23)c2cccnc21 (as salt: hydrochloride) [Example 16] |  |
| 202 to 204 |  | NCCn1cc(S(=O)(=O)c2cccc(F)c2)c2cccnc21 (as salt: hydrochloride) [Example 17] |  |
| 108 to 112 |  | CN(C)CCn1cc(S(=O)(=O)c2cccc(C(F)(F)F)c2)c2cccnc21 (as salt: hydrochloride) [Example 19] |  |
| 196 to 198 |  | CN(C)CCn1cc(S(=O)(=O)c2ccccc2C(F)(F)F)c2cccnc21 (as salt: hydrochloride) [Example 20] |  |
| 182 to 185 |  | NCCn1cc(S(=O)(=O)c2ccccc2C(F)(F)F)c2cccnc21 (as salt: hydrochloride) [Example 21] |  |
| 179 to 183 |  | NCCn1cc(S(=O)(=O)c2cccc(C(F)(F)F)c2)c2cccnc21 (as salt: hydrochloride) [Example 22] |  |
| 202 to 204 |  | NCCn1cc(S(=O)(=O)c2cccs2)c2cccnc21 (as salt: hydrochloride) [Example 23] |  |
| 136 to 140 |  | NCCn1cc(S(=O)(=O)c2cc(Cl)cc(Cl)c2)c2cccnc21 (as salt: hydrochloride) [Example 24] |  |
| 212 to 216 |  | CN(C)CCn1cc(S(=O)(=O)c2cccs2)c2cccnc21 (as salt: hydrochloride) [Example 25] |  |
| 227 to 232 |  | CN(C)CCn1cc(S(=O)(=O)c2cc(Cl)cc(Cl)c2)c2cccnc21 (as salt: hydrochloride) [Example 26] |  |
| 197 to 199 |  | O=S(=O)(c1cccc(F)c1)c1cn(CCN2CCCCC2)c2ncccc12 (as salt: hydrochloride) [Example 29] |  |
| 127 to 129 |  | O=S(=O)(c1cccc(F)c1)c1cn(CCN2CCOCC2)c2ncccc12 (as salt: hydrochloride) [Example 30] |  |
| 169 to 171 |  | CN(C)CCn1cc(S(=O)(=O)c2ccc(Cl)s2)c2cccnc21 (as salt: hydrochloride) [Example 33] |  |
| 180 to 182 |  | CN(C)CCn1cc(S(=O)(=O)c2c(Cl)nc3sccn23)c2cccnc21 (as salt: hydrochloride) [Example 34] |  |
| 230 to 232 |  | CN(C)CCn1cc(S(=O)(=O)c2cc(Cl)ccc2Cl)c2cccnc21 (as salt: hydrochloride) [Example 38] |  |
| 239 to 241 |  | Cc1c(S(=O)(=O)c2cccc(F)c2)c2cccnc2n1CCN (as salt: hydrochloride) [Example 66] |  |
| 233 to 238 |  | NCCn1cc(S(=O)(=O)c2ccc3ccccc3c2)c2cccnc21 (as salt: hydrochloride) [Example 67] |  |
| 180 to 185 |  | CC(CN)n1cc(S(=O)(=O)c2ccccc2)c2cccnc21 (stereo not drawn) (as salt: hydrochloride) [Example 68] |  |
|  | 6 | NCCn1cc(S(=O)(=O)c2ccccc2)c2cccnc21 [Example 5, 2-[3-(Phenylsulfonyl)-1H-pyrrolo[2,3-b]pyridin-1-yl]ethylamine dihydrochloride] |  |
|  |  | CN(C)CCn1cc(S(=O)(=O)c2ccccc2)c2cccnc21 [Example 6, N,N-Dimethyl-N-{2-[3-(phenylsulfonyl)-1H-pyrrolo[2,3-b]pyridin-1-yl]ethyl}amine dihydrochloride] | Ki ([1]; read-out: 5-HT6 Binding Ki): 23 nM |
|  | 9 | Cc1ccc(S(=O)(=O)c2cn(CCN)c3ncccc23)cc1 [Example 7, 2-{3-[(4-Methylphenyl)sulfonyl]-1H-pyrrolo[2,3-b]pyridin-1-yl}ethylamine dihydrochloride] |  |

| melting point [°C] | Ki [1, 2] [nM] | SMILES | other results |
| --- | --- | --- | --- |
|  |  | NCCn1cc(S(=O)(=O)c2ccc(F)cc2)c2cccnc21 [Example 11, 2-{3-[(4-Fluorophenyl)sulfonyl]-1H-pyrrolo[2,3-b]pyridin-1yl}ethylamine hydrochloride] | Ki ([1]; read-out: 5-HT6 Binding Ki): 22 nM |
|  |  | NCCn1cc(S(=O)(=O)c2cccc(Cl)c2)c2cccnc21 [Example 12, 2-{3-[(3-Chlorophenyl)sulfonyl]-1H-pyrrolo[2,3-b]pyridin-1-yl}ethylamine dihydrochloride] | Ki [1]: 20 nM |
|  | 50 | CN(C)CCn1cc(S(=O)(=O)c2ccc(F)cc2)c2cccnc21 [Example 13] |  |
|  | 2 | CN(C)CCn1cc(S(=O)(=O)c2cccc(Cl)c2)c2cccnc21 [Example 14] |  |
|  |  | CN(C)CCn1cc(S(=O)(=O)c2cccc3ccccc23)c2cccnc21 [Example 15] | Ki ([1]; read-out: 5-HT6 Binding Ki): 1 nM |
|  | 2 | NCCn1cc(S(=O)(=O)c2cccc3ccccc23)c2cccnc21 [Example 16] |  |
|  | 6 | NCCn1cc(S(=O)(=O)c2cccc(F)c2)c2cccnc21 [Example 17] |  |
|  | 5 | Cc1c(S(=O)(=O)c2ccccc2)c2cccnc2n1CCN [Example 18] |  |
|  | 5 | CN(C)CCn1cc(S(=O)(=O)c2cccc(C(F)(F)F)c2)c2cccnc21 [Example 19] |  |
|  | 11 | CN(C)CCn1cc(S(=O)(=O)c2ccccc2C(F)(F)F)c2cccnc21 [Example 20] |  |
|  | 2 | NCCn1cc(S(=O)(=O)c2ccccc2C(F)(F)F)c2cccnc21 [Example 21] |  |
|  | 2 | NCCn1cc(S(=O)(=O)c2cccc(C(F)(F)F)c2)c2cccnc21 [Example 22] |  |
|  | 9 | NCCn1cc(S(=O)(=O)c2cccs2)c2cccnc21 [Example 23] |  |
|  | 3 | NCCn1cc(S(=O)(=O)c2cc(Cl)cc(Cl)c2)c2cccnc21 [Example 24] |  |
|  | 15 | CN(C)CCn1cc(S(=O)(=O)c2cccs2)c2cccnc21 [Example 25] |  |
|  | 4 | CN(C)CCn1cc(S(=O)(=O)c2cc(Cl)cc(Cl)c2)c2cccnc21 [Example 26] |  |
|  | 45 | O=S(=O)(c1cccc(Cl)c1)c1cn(CCN2CCCC2)c2ncccc12 [Example 27] |  |
|  | 88 | O=S(=O)(c1cccc(F)c1)c1cn(CCN2CCCC2)c2ncccc12 [Example 28] |  |
|  | 158 | O=S(=O)(c1cccc(F)c1)c1cn(CCN2CCCCC2)c2ncccc12 [Example 29] |  |
|  | 403 | O=S(=O)(c1cccc(F)c1)c1cn(CCN2CCOCC2)c2ncccc12 [Example 30] |  |
|  | 4 | CN(C)CCn1cc(S(=O)(=O)c2ccc(Cl)s2)c2cccnc21 [Example 33] |  |
|  | 2 | CN(C)CCn1cc(S(=O)(=O)c2c(Cl)nc3sccn23)c2cccnc21 [Example 34] |  |
| 74 to 76 | 20 | CCN(CC)CCn1cc(S(=O)(=O)c2cccc(Cl)c2)c2cccnc21 [Example 35] |  |

| melting point [°C] | Ki [1, 2] [nM] | SMILES | other results |
| --- | --- | --- | --- |
| 212 to 215 | 102 | Cc1c(S(=O)(=O)c2cn(CCN(C)C)c3ncccc23)sc2ccc(Cl)cc12 [Example 36] |  |
| 220 to 222 | 9 | CN(C)CCn1cc(S(=O)(=O)c2c(Cl)cccc2Cl)c2cccnc21 [Example 37] |  |
|  | 12 | CN(C)CCn1cc(S(=O)(=O)c2cc(Cl)ccc2Cl)c2cccnc21 [Example 38] |  |
| 140 to 145 | 212 | O=S(=O)(c1cn(CCN(Cc2ccccc2)Cc2ccccc2)c2ncccc12)c1c(Cl)nc2sccn12 [Example 39] |  |
| 195 to 197 | 10 | Cc1cccc(S(=O)(=O)c2cn(CCN(C)C)c3ncccc23)c1 [Example 40] |  |
| 182 to 184 | 41 | CN(C)CCn1cc(S(=O)(=O)c2ccccc2)c2ccc(Br)nc21 [Example 41] |  |
|  | 39 | COc1ccc2c(S(=O)(=O)c3ccccc3)cn(CCN(C)C)c2n1 [Example 42] |  |
| 148 to 150 | 63 | CN(C)CCn1cc(S(=O)(=O)c2cccc(C#N)c2)c2cccnc21 [Example 44] |  |
| 238 to 240 | 10 | Cc1c(S(=O)(=O)c2ccc3ccccc3c2)c2cccnc2n1CCN(C)C [Example 45] |  |
|  |  | CNCCn1cc(S(=O)(=O)c2cccc(Cl)c2)c2cccnc21 [Example 57, N-(2-{3-[(3-Chlorophenyl)sulfonyl]-1H-pyrrolo[2,3-b]pyridin-1-yl}ethyl)-N-methylamine Hydrochloride] | Ki ([1]; read-out: 5-HT6 Binding Ki): 0.3 nM |
| 182 to 186 | 1 | CNCCn1cc(S(=O)(=O)c2c(Cl)nc3sccn23)c2cccnc21 [Example 58] |  |
|  | 3 | CCNCCn1cc(S(=O)(=O)c2cccc(Cl)c2)c2cccnc21 [Example 60] |  |
| 173 to 175 | 9 | O=S(=O)(c1cn(CCNCc2ccccc2)c2ncccc12)c1c(Cl)nc2sccn12 [Example 61] |  |
| 244 to 246 | 1 | CNCCn1cc(S(=O)(=O)c2cccc(C)c2)c2cccnc21 [Example 62] |  |
|  | 2 | Cc1c(S(=O)(=O)c2cccc(F)c2)c2cccnc2n1CCN [Example 66] |  |
|  | 24 | NCCn1cc(S(=O)(=O)c2ccc3ccccc3c2)c2cccnc21 [Example 67] |  |
|  | 14 | CC(CN)n1cc(S(=O)(=O)c2ccccc2)c2cccnc21 (stereo not drawn) [Example 68] |  |
|  | 200 | CN(C)CCn1cc(S(=O)(=O)c2cccc(F)c2)c2ncccc21 [Example 77, N,N-Dimethyl-N-(2-{3-[(3-fluorophenyl)sulfonyl]-1H-pyrrolo[3,2-b]pyridin-1-yl}ethyl)amine Dihydrochloride] |  |
| 225 to 226 | 4 | COc1ccc2c(n1)c(S(=O)(=O)c1ccc(Br)cc1)cn2CCN(C)C [Example 78] |  |
| 208 to 212 | 11 | COc1ccc2c(n1)c(S(=O)(=O)c1cccc(F)c1)cn2CCN(C)C [Example 79] |  |
| 233 to 235 | 2 | COc1ccc2c(n1)c(S(=O)(=O)c1cccc3ccccc13)cn2CCN(C)C [Example 80] |  |

| SMILES | melting point [°C] | Ki [1, 2] [nM] | other results |
| --- | --- | --- | --- |
| CN(C)CCn1cc(S(=O)(=O)c2cccc3ccccc23)c2cccnc21 (as salt: hydrochloride) [Example 15] | 203 to 206 |  |  |
| CNCCn1cc(S(=O)(=O)c2cccc(F)c2)c2cccnc21 [Example 59] | 255 to 260 |  | Ki ([1]; read-out: 5-HT6 Binding Ki): 1 nM |
